Source: BindingDB's records for doi:10.7270/Q2N014XN (Srmlsc, 2007)

Biological target: T1, Diphosphomevalonate decarboxylase (Streptococcus pneumoniae serotype 2 (strain D39 / NCTC 7466), UniProt A0A0H2ZN59)
T1 sequence (A0A0H2ZN59 whole entry): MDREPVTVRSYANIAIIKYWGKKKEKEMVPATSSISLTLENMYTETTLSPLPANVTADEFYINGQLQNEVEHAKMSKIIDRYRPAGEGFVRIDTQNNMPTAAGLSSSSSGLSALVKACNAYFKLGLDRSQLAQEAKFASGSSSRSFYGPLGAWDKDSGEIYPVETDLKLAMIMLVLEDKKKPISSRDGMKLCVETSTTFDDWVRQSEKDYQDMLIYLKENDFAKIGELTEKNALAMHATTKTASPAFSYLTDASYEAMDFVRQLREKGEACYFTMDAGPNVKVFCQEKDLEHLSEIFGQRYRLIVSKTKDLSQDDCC
Test: diphosphomevalonate decarboxylase inhibition dose curves – biochemical, PK/LDH-coupled NADH fluorescence, hexokinase coupling counter-screen, dose response (AID 550)

[1] = inactive by the depositor's call

Compound	IC50 [µM]	IC50 [1] [µM]
COC(=O)c1c(NC(=O)c2ccoc2C)sc2c1CCC2 [2-[(2-methyl-3-furoyl)amino]-5,6-dihydro-4H-cyclopenta[b]thiophene-3-carboxylic acid methyl ester]	98.9	–
Cc1c2ccncc2c(C)c2c1[nH]c1ccccc12 [5,11-dimethyl-2H-pyrido[4,3-b]carbazole]	119	–
CCOc1ccc(N(CC(=O)Nc2ccc(F)c(F)c2)S(=O)(=O)c2c(C)noc2C)cc1 [MLS000117397]	> 10000	–
C/C=C/Cn1c(N(C)Cc2ccccc2)nc2c1c(=O)[nH]c(=O)n2C [8-[benzyl(methyl)amino]-7-[(E)-but-2-enyl]-3-methylpurine-2,6-dione]	> 10000	–
CCOC(=O)c1c(C)n(OCc2ccccc2)c2ccc3c(n[o+]n3[O-])c12 [6-benzoxy-7-methyl-3-oxido-pyrrolo[2,3-g][2,1,3]benzoxadiazol-3-ium-8-carboxylic acid ethyl ester]	> 10000	–
CCOc1cc(NC(=O)c2ccco2)c(OCC)cc1NC(=O)CCc1ccc(OC)cc1 [Furan-2-carboxylic acid {2,5-diethoxy-4-[3-(4-methoxy-phenyl)-propionylamino]-phenyl}-amide]	> 10000	–
CCCOC(=O)Cc1n[nH]c(=O)[nH]c1=O [2-(3,5-dioxo-2H-1,2,4-triazin-6-yl)acetic acid propyl ester]	> 10000	–
CCc1cc(C(Cc2ccc3ccccc3n2)N=O)c(O)cc1O (configuration not stated) [(6Z)-4-ethyl-3-hydroxy-6-[1-(hydroxyamino)-2-(2-quinolinyl)ethylidene]-1-cyclohexa-2,4-dienone]	> 10000	–
c1ccc(-c2nc3nonc3c3nc4ccccc4n23)cc1 [5-Phenyl-2-oxa-1,3,4,5a,10-pentaaza-cyclopenta[a]fluorene]	> 10000	–
O=C1NC(=O)C(CC(=O)N(c2ccccc2)C2(C(=O)NC3CCCC3)CCCCC2)N1 (configuration not stated) [1-[2-[2,5-bis(oxidanylidene)imidazolidin-4-yl]ethanoyl-phenyl-amino]-N-cyclopentyl-cyclohexane-1-carboxamide]	> 10000	–
N#Cc1c(NCCCO)nc(NCc2ccccc2)c2c1CCN(Cc1ccccc1)C2 [3-(3-hydroxypropylamino)-7-(phenylmethyl)-1-[(phenylmethyl)amino]-6,8-dihydro-5H-2,7-naphthyridine-4-carbonitrile]	39.1	–
Nc1nc2c(s1)CCc1c-2cnn1-c1ccccc1 [MLS000085948]	–	9.51
CC1=C(C(=O)OCC2CCCO2)C(c2ccncc2)C2C(=O)CCCC2=N1 (configuration not stated)	26.9	–
CC(C)CNC(=O)COc1ccc2c3c(c(=O)oc2c1)CCC3 [MLS000054673]	65.4	–
COc1ccccc1-c1nnc2sc(-c3ccc(N(C)C)cc3)nn12 [4-[3-(2-methoxyphenyl)-[1,2,4]triazolo[3,4-b][1,3,4]thiadiazol-6-yl]-N,N-dimethyl-aniline]	16.3	–
Cn1/c(=N/C(=O)c2ccco2)sc2cccc(F)c21 [MLS000101506]	> 10000	–
COc1ccc(-n2c(NC(=O)c3ccco3)c(C#N)c3nc4ccccc4nc32)cc1 [MLS000079925]	16.9	–
N#Cc1c(NCCO)nc(NCc2ccccc2)c2c1CCN(Cc1ccccc1)C2 [3-(2-hydroxyethylamino)-7-(phenylmethyl)-1-[(phenylmethyl)amino]-6,8-dihydro-5H-2,7-naphthyridine-4-carbonitrile]	38.6	–
COc1ccc(-c2cc(C(F)(F)F)n3nc(C(=O)N4CCC5(CC4)OCCO5)cc3n2)cc1OC [8-{[5-(3,4-dimethoxyphenyl)-7-(trifluoromethyl)pyrazolo[1,5-a]pyrimidin-2-yl]carbonyl}-1,4-dioxa-8-azaspiro[4.5]decane]	75.3	–
CC(C)(C)CC(=O)Nc1nnc(-c2cccs2)s1 [3,3-Dimethyl-N-(5-thiophen-2-yl-[1,3,4]thiadiazol-2-yl)-butyramide]	> 10000	–
Cc1cc(C)c2c(=O)n(CC(=O)N3CCC(Cc4ccccc4)CC3)sc2n1 [2-[2-(4-benzylpiperidin-1-yl)-2-oxoethyl]-4,6-dimethyl-[1,2]thiazolo[5,4-b]pyridin-3-one]	221	–
Cc1c(C(=O)NCC2CCCO2)sc2nc(-c3ccccc3)cn12 (configuration not stated) [3-methyl-6-phenyl-N-(tetrahydrofurfuryl)imidazo[2,1-b]thiazole-2-carboxamide]	> 10000	–
Cn1ncc2c(Nc3ccc(-c4ccccc4)cc3)ncnc21 [(1-methylpyrazolo[3,4-d]pyrimidin-4-yl)-(4-phenylphenyl)amine]	53.7	–
CCN(CC)c1ccc(C=Nn2c(=S)[nH]nc(C)c2=O)cc1 [4-[[4-(diethylamino)phenyl]methylideneamino]-6-methyl-3-sulfanylidene-2H-1,2,4-triazin-5-one]	–	20.2
COc1cc(NC(=O)c2ccc3c(c2)OCO3)c2ncccc2c1 [MLS000061736]	52	–
CC(=O)c1cccc(NC(=O)Nc2cccnc2)c1 [1-(3-acetylphenyl)-3-(3-pyridinyl)urea]	> 10000	–

Compound	IC50 [µM]	IC50 [1] [µM]
O=C1CC(c2cccnc2)c2cc3c(cc2N1)OCO3 (configuration not stated) [8-(3-pyridinyl)-7,8-dihydro-5H-[1,3]dioxolo[4,5-g]quinolin-6-one]	> 10000	–
COc1ccc(-c2ccc(-c3nnc(-c4ccncc4)o3)cc2)cc1 [2-[4-(4-methoxyphenyl)phenyl]-5-(4-pyridyl)-1,3,4-oxadiazole]	123	–
COc1ccc(N2CCN(CCNS(=O)(=O)c3cccc4nsnc34)CC2)cc1 [MLS000090468]	> 10000	–
COC(=O)Cn1c(=NC(=O)CSC(C)=O)sc2ccccc21 [2-[2-[2-(acetylthio)-1-oxoethyl]imino-1,3-benzothiazol-3-yl]acetic acid methyl ester]	> 10000	–
CCOC(=O)N1CCC(NC(=O)CSc2cc(=O)n(C)c3ccccc23)CC1 [4-[[2-[(1-methyl-2-oxo-4-quinolinyl)thio]-1-oxoethyl]amino]-1-piperidinecarboxylic acid ethyl ester]	399	–
CCOC(=O)C1=C(C)N=C(C)C(C(=O)OCC)C1c1cc2ccc(C)cc2[nH]c1=O (configuration not stated) [diethyl 2,6-dimethyl-4-(7-methyl-2-oxidanylidene-1H-quinolin-3-yl)-1,4-dihydropyridine-3,5-dicarboxylate]	150	–
Cc1nc2oc3c(NCc4ccccn4)ncnc3c2c2c1COC(C)(C)C2 [MLS000084529]	> 10000	–
CCN(CC)C(=O)c1sc2[nH]c(-c3ccccn3)nc(=O)c2c1C	30	–
O=C(Nc1ccc(N2CCCCC2)cc1)c1cccnc1 [MLS000074324]	> 10000	–
COCCn1cc(C(=O)NCCCN2CCC(C)CC2)c2c3ccccc3n(C)c2c1=O [1-keto-2-(2-methoxyethyl)-9-methyl-N-[3-(4-methylpiperidino)propyl]-beta-carboline-4-carboxamide]	27.2	–
O=C(Nc1ccc(F)cc1)N(CCCN1CCOCC1)Cc1cc2cc3c(cc2[nH]c1=O)OCO3 [3-(4-fluorophenyl)-1-[3-(4-morpholinyl)propyl]-1-[(6-oxo-5H-[1,3]dioxolo[4,5-g]quinolin-7-yl)methyl]urea]	17.6	–
CCOc1ccccc1OCC(=O)Nc1ccc(N2CCCCC2)cc1 [2-(2-ethoxyphenoxy)-N-(4-piperidin-1-ylphenyl)acetamide]	> 10000	–
O=C(C1CCCCC1)N1CCC(c2nc3c(nnn3Cc3ccccc3Cl)c(=O)[nH]2)CC1	> 10000	–
COCCn1nnnc1CN(Cc1cccnc1)Cc1cc2cc(OC)ccc2[nH]c1=O [6-methoxy-3-[[[1-(2-methoxyethyl)-5-tetrazolyl]methyl-(3-pyridinylmethyl)amino]methyl]-1H-quinolin-2-one]	> 10000	–
COc1ccc2[nH]c(=O)c(CN(CC3CCCO3)C(=O)Nc3ccccc3)cc2c1 (configuration not stated)	80.7	–
O=C(NC1CCCCC1)N(CCN1CCCC1)Cc1cc2cc3c(cc2[nH]c1=O)OCCO3 [3-cyclohexyl-1-[(7-oxo-3,6-dihydro-2H-[1,4]dioxino[2,3-g]quinolin-8-yl)methyl]-1-[2-(1-pyrrolidinyl)ethyl]urea]	15	–
Cc1ccc2cc3c(NC(=O)c4ccco4)nn(C)c3nc2c1 [MLS000041273]	45.7	–
CN(C)Cc1nc2ccccc2c(=O)n1Cc1nc(-c2cc3ccccc3o2)cs1 [3-[[4-(1-benzofuran-2-yl)-1,3-thiazol-2-yl]methyl]-2-[(dimethylamino)methyl]quinazolin-4-one]	> 10000	–
CN(C)[C@@H]1C(=O)C(C(N)=O)C(=O)[C@@]2(O)C(=O)C3C(=O)c4c(O)cccc4[C@@](C)(O)[C@H]3[C@H](O)[C@@H]12 (stereo partly drawn) [(2E,4S,4aR,5S,5aR,6S,12aS)-2-[azanyl(oxidanyl)methylidene]-4-(dimethylamino)-6-methyl-5,6,10,11,12a-pentakis(oxidanyl)-4,4a,5,5a-tetrahydrotetracene-1,3,12-trione]	36.8	–
Cc1cc(-c2ccccc2)nc2cc(C(N)=O)nn12 [7-methyl-5-phenyl-2-pyrazolo[1,5-a]pyrimidinecarboxamide]	> 10000	–
c1ccc2c(c1)nnn2Cc1nnc2sc(-c3ccc4c(c3)OCCO4)nn12 [1-{[6-(2,3-dihydro-1,4-benzodioxin-6-yl)[1,2,4]triazolo[3,4-b][1,3,4]thiadiazol-3-yl]methyl}-1H-1,2,3-benzotriazole]	83.8	–
Cc1cc(C)c(S(=O)(=O)NCc2cn3c(C)csc3n2)cc1C [2,4,5-trimethyl-N-[(3-methyl-6-imidazo[2,1-b]thiazolyl)methyl]benzenesulfonamide]	> 10000	–
Cc1cc(=O)oc2ccc(OCC(=O)N3CCC(C)CC3)cc12 [4-methyl-6-[2-(4-methyl-1-piperidinyl)-2-oxoethoxy]-1-benzopyran-2-one]	213	–
O=C(Nc1ccc(-c2nc3ncccc3o2)cc1)c1ccco1 [MLS000062759]	34.9	–
NC(=O)c1ccsc1NC(=O)c1nc(-c2ccccc2)n(-c2ccccc2)n1 [MLS000054020]	55.9	–
Cc1ccccc1CN1CCN(S(=O)(=O)c2ccc(F)cc2)CC1 [1-(4-fluorophenyl)sulfonyl-4-(2-methylbenzyl)piperazine]	> 10000	–
